# Laboratory results reported in ChEMBL document CHEMBL1136083, “Potent Grb2-SH2 domain antagonists not relying on phosphotyrosine mimics” (Bioorg Med Chem Lett, 2003).
# *1 amine or outer side, *2 acyl side, *3 side chain or, on linkers, in order; H or OH if unused. Where a SMILES comes first, the peptide text is derived from it. Bridges are numbered along the chain shown (N, C = ends). [ ]: non-standard residue; d: D form. Gla = N[C@@H](CC(C(=O)O)C(=O)O)C(=O)O; X1 = O=C([C@]1(N[*:1])CC2CCC1C2)[*:2]
# Target: T1, Growth factor receptor-bound protein 2 (Homo sapiens, UniProt P62993)
# Test: Binding affinity against Growth factor receptor bound protein 2 using ELISA assay
row,IC50,Structure (SMILES)
1,991 nM,CSCC[C@H]1NC(=O)CNC(=O)[C@@H](C(C)C)NC(=O)[C@H](CC(N)=O)NC(=O)[C@@H](CCC(=O)O)NC(=O)[C@H](Cc2ccc(O)cc2)NC(=O)[C@@H](CC(C)C)NC(=O)[C@H](CC(C(=O)O)C(=O)O)NC(=O)CSC[C@@H](C(N)=O)NC(=O)[C@H](Cc2ccc(O)cc2)NC1=O
2,1510 nM,CSCC[C@H]1NC(=O)CNC(=O)[C@@H](C(C)C)NC(=O)[C@H](CC(N)=O)NC(=O)[C@@H](CCCC(=O)O)NC(=O)[C@H](Cc2ccc(O)cc2)NC(=O)[C@@H](CC(C)C)NC(=O)[C@H](CC(C(=O)O)C(=O)O)NC(=O)CSC[C@@H](C(N)=O)NC(=O)[C@H](Cc2ccc(O)cc2)NC1=O
3,244 nM,CC(C)C[C@H]1NC(=O)[C@H](CC(C(=O)O)C(=O)O)NC(=O)CSC[C@@H](C(N)=O)NC(=O)[C@H](Cc2ccc(O)cc2)NC(=O)[C@@H](CC(C)(C)C)NC(=O)CNC(=O)[C@@H](C(C)C)NC(=O)[C@H](CC(N)=O)NC(=O)C2(CCCCC2)NC(=O)[C@H](Cc2ccc(O)cc2)NC1=O
4,7830 nM,"CSCC[C@@H]1NC(=O)CNC(=O)[C@H](C(C)C)NC(=O)[C@H](CC(N)=O)NC(=O)[C@@H]2CCCN2C(=O)[C@H](Cc2ccc(O)cc2)NC(=O)[C@H](CC(C)C)NC(=O)[C@H](CCC(=O)O)NC(=O)CSC[C@@H](C(N)=O)NC(=O)[C@H](Cc2ccc(O)cc2)NC1=O (HELM PEPTIDE1{[O=C(C[*:3])[*:2]].E.L.Y.P.N.V.G.M.Y.C.[am]}$PEPTIDE1,PEPTIDE1,1:R3-11:R3$$$V2.0)"
5,74.6 nM,CC(C)C[C@H]1NC(=O)[C@H](CC(C(=O)O)C(=O)O)NC(=O)C[S+]([O-])C[C@@H](C(N)=O)NC(=O)[C@H](Cc2ccc(O)cc2)NC(=O)[C@@H](CC(C)(C)C)NC(=O)CNC(=O)[C@@H](C(C)C)NC(=O)[C@H](CC(N)=O)NC(=O)C2(CCCCC2)NC(=O)[C@H](Cc2ccc(O)cc2)NC1=O (stereo in doubt; 12)
6,314 nM,CC(C)C[C@H]1NC(=O)[C@H](CC(C(=O)O)C(=O)O)NC(=O)C[S+]([O-])C[C@@H](C(N)=O)NC(=O)[C@H](Cc2ccc(O)cc2)NC(=O)[C@@H](Cc2ccc3ccccc3c2)NC(=O)CNC(=O)[C@@H](C(C)C)NC(=O)[C@H](CC(N)=O)NC(=O)C2(CCCCC2)NC(=O)[C@H](Cc2ccc(O)cc2)NC1=O (stereo in doubt; 14)
7,4860 nM,CC(C)C[C@H]1NC(=O)[C@H](CC(C(=O)O)C(=O)O)NC(=O)C[S+]([O-])C[C@@H](C(N)=O)NC(=O)[C@H](Cc2ccc(O)cc2)NC(=O)[C@@H](Cc2ccc3ccccc3c2)NC(=O)CNC(=O)[C@@H](C(C)C)NC(=O)[C@H](CC(N)=O)NC(=O)C2(CCCCC2)NC(=O)[C@H](Cc2ccc(O)cc2)NC1=O (stereo in doubt; 15)
8,1410 nM,CC(C)C[C@H]1NC(=O)[C@H](CC(C(=O)O)C(=O)O)NC(=O)C[S+]([O-])C[C@@H](C(N)=O)NC(=O)[C@H](Cc2ccc(O)cc2)NC(=O)[C@@H](C2CCCCC2)NC(=O)CNC(=O)[C@@H](C(C)C)NC(=O)[C@H](CC(N)=O)NC(=O)C2(CCCCC2)NC(=O)[C@H](Cc2ccc(O)cc2)NC1=O (stereo in doubt; 17)
9,730 nM,CSCC[C@@H]1NC(=O)CNC(=O)[C@H](C(C)C)NC(=O)[C@H](CC(N)=O)NC(=O)[C@@]2(CC3CCC2C3)NC(=O)[C@H](Cc2ccc(O)cc2)NC(=O)[C@H](CC(C)C)NC(=O)[C@H](CC(C(=O)O)C(=O)O)NC(=O)CSC[C@@H](C(N)=O)NC(=O)[C@H](Cc2ccc(O)cc2)NC1=O (some centres not stated) ({CH2CO}-[Gla]LY[X1]NVGMYC-NH2; thioether N-10)

# Second part, the compound before the results:
row,Structure (SMILES),IC50
1,CC(C)C[C@H]1NC(=O)[C@H](CC(C(=O)O)C(=O)O)NC(=O)CSC[C@@H](C(N)=O)NC(=O)[C@H](Cc2ccc(O)cc2)NC(=O)[C@@H](Cc2ccc(-c3ccccc3)cc2)NC(=O)CNC(=O)[C@@H](C(C)C)NC(=O)[C@H](CC(N)=O)NC(=O)C2(CCCCC2)NC(=O)[C@H](Cc2ccc(O)cc2)NC1=O,502 nM
2,CSCC[C@H]1NC(=O)CNC(=O)[C@@H](C(C)C)NC(=O)[C@H](CC(N)=O)NC(=O)C2(CCCCC2)NC(=O)[C@H](Cc2ccc(O)cc2)NC(=O)[C@@H](CC(C)C)NC(=O)[C@H](CC(C(=O)O)C(=O)O)NC(=O)CSC[C@@H](C(N)=O)NC(=O)[C@H](Cc2ccc(O)cc2)NC1=O,525 nM
3,CC(C)C[C@H]1NC(=O)[C@H](CC(C(=O)O)C(=O)O)NC(=O)CSC[C@@H](C(N)=O)NC(=O)[C@H](Cc2ccc(O)cc2)NC(=O)[C@@H](Cc2ccc3ccccc3c2)NC(=O)CNC(=O)[C@@H](C(C)C)NC(=O)[C@H](CC(N)=O)NC(=O)C2(CCCCC2)NC(=O)[C@H](Cc2ccc(O)cc2)NC1=O,271 nM
4,CC(C)C[C@H]1NC(=O)[C@H](CC(C(=O)O)C(=O)O)NC(=O)CSC[C@@H](C(N)=O)NC(=O)[C@H](Cc2ccc(O)cc2)NC(=O)[C@@H](Cc2c(F)c(F)c(F)c(F)c2F)NC(=O)CNC(=O)[C@@H](C(C)C)NC(=O)[C@H](CC(N)=O)NC(=O)C2(CCCCC2)NC(=O)[C@H](Cc2ccc(O)cc2)NC1=O,238 nM
5,"CSCC[C@@H]1NC(=O)CNC(=O)[C@H](C(C)C)NC(=O)[C@H](CC(N)=O)NC(=O)[C@H](CCC(=O)O)NC(=O)[C@H](Cc2ccc(O)cc2)NC(=O)[C@H](CC(C)C)NC(=O)[C@H](CCC(=O)O)NC(=O)CSC[C@@H](C(N)=O)NC(=O)[C@H](Cc2ccc(O)cc2)NC1=O (HELM PEPTIDE1{[O=C(C[*:3])[*:2]].E.L.Y.E.N.V.G.M.Y.C.[am]}$PEPTIDE1,PEPTIDE1,1:R3-11:R3$$$V2.0)",> 100000 nM
6,CC(C)C[C@H]1NC(=O)[C@H](CC(C(=O)O)C(=O)O)NC(=O)C[S+]([O-])C[C@@H](C(N)=O)NC(=O)[C@H](Cc2ccc(O)cc2)NC(=O)[C@@H](CC(C)(C)C)NC(=O)CNC(=O)[C@@H](C(C)C)NC(=O)[C@H](CC(N)=O)NC(=O)C2(CCCCC2)NC(=O)[C@H](Cc2ccc(O)cc2)NC1=O (stereo in doubt; 13),747 nM
7,CC(C)C[C@H]1NC(=O)[C@H](CC(C(=O)O)C(=O)O)NC(=O)C[S+]([O-])C[C@@H](C(N)=O)NC(=O)[C@H](Cc2ccc(O)cc2)NC(=O)[C@@H](C2CCCCC2)NC(=O)CNC(=O)[C@@H](C(C)C)NC(=O)[C@H](CC(N)=O)NC(=O)C2(CCCCC2)NC(=O)[C@H](Cc2ccc(O)cc2)NC1=O (stereo in doubt; 16),149 nM

# Target: T1, Growth factor receptor-bound protein 2
# Test: Inhibitory activity against Growth factor receptor bound protein 2 using ELISA assay
row,IC50,Structure (SMILES)
1,20 µM,"CSCC[C@@H]1NC(=O)CNC(=O)[C@H](C(C)C)NC(=O)[C@H](CC(N)=O)NC(=O)[C@H](CCC(=O)O)NC(=O)[C@H](Cc2ccc(O)cc2)NC(=O)[C@H](CC(C)C)NC(=O)[C@H](CCC(=O)O)NC(=O)CSC[C@@H](C(N)=O)NC(=O)[C@H](Cc2ccc(O)cc2)NC1=O (HELM PEPTIDE1{[O=C(C[*:3])[*:2]].E.L.Y.E.N.V.G.M.Y.C.[am]}$PEPTIDE1,PEPTIDE1,1:R3-11:R3$$$V2.0)"
